Reference: ChEMBL document CHEMBL1201862, “PubChem BioAssay data set” (2004)
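A five-concentration, 48-hour dose response in 96-well plates underlies each endpoint, interpolated linearly between surrounding concentrations. GI50 is the concentration that inhibits growth by half.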 Activity calls are given as the source filed them. Cut-off read from the data, not from the text of the source: active = GI50 up to about 1.1 µM and inactive = higher.

Tests used:
Assay in all cases: NCI tumour cell line growth inhibition, 48 h
Malme-3M = system: Malme-3M
HCT-116 = system: HCT-116
LOX IMVI = system: LOX IMVI
UACC-62 = system: UACC-62
Hs-578T = system: Hs-578T
M14 = system: M14
NCI-H522 = system: NCI-H522
OVCAR-8 = system: OVCAR-8
DU-145 = system: DU-145
CAKI-1 = system: CAKI-1
SNB-19 = system: SNB-19
T47D = system: T47D
IGROV-1 = system: IGROV-1
PC-3 = system: PC-3
786-0 = system: 786-0
SF-295 = system: SF-295
RXF 393 = system: RXF 393
OVCAR-3 = system: OVCAR-3
MDA-MB-435 = system: MDA-MB-435
HCT-15 = system: HCT-15

SMILES | GI50 (Malme-3M) | GI50 (HCT-116) | GI50 (LOX IMVI) | GI50 (UACC-62) | GI50 (Hs-578T) | GI50 (M14) | GI50 (NCI-H522) | GI50 (OVCAR-8) | GI50 (DU-145) | GI50 (CAKI-1) | GI50 (SNB-19) | GI50 (T47D) | GI50 (IGROV-1) | GI50 (PC-3) | GI50 (786-0) | GI50 (SF-295) | GI50 (RXF 393) | GI50 (OVCAR-3) | GI50 (MDA-MB-435) | GI50 (HCT-15) [µM]
CN(C)c1ccc(/C=C(\NC(=O)c2ccccc2)C2NC(Cc3c[nH]c4ccccc34)C(=O)O2)cc1 (stereo not given) | 21.4 µM (inactive) | 19.2 µM (inactive) | > 24.8 µM (inactive) | > 82.6 µM (inactive) | 11.2 µM (inactive) | 42.2 µM (inactive) | 3.46 µM (inactive) | 5.98 µM (inactive) | > 100 µM (inactive) | > 59 µM (inactive) | 12 µM (inactive) | > 54 µM (inactive) | 5.37 µM (inactive) | 27.4 µM (inactive) | 12.2 µM (inactive) | 36.1 µM (inactive) | > 91 µM (inactive) | 60.8 µM (inactive) | 10.8 µM (inactive) | 14.3
COc1cc2c3c(c1OC)-c1cc4c(cc1CC3(C#N)N(C(=O)c1ccccc1)CC2)OCO4 (stereo not given) | 35.3 µM (inactive) | 31.9 µM (inactive) | > 56.8 µM (inactive) | 16.4 µM (inactive) | 19.6 µM (inactive) | 54.2 µM (inactive) | 28.2 µM (inactive) | 20.7 µM (inactive) | > 100 µM (inactive) | 37.9 µM (inactive) | 22.2 µM (inactive) | > 100 µM (inactive) | 33 µM (inactive) | > 76.4 µM (inactive) | 29.1 µM (inactive) | 33.3 µM (inactive) | 8.73 µM (inactive) | 40.5 µM (inactive) | > 88.5 µM (inactive) | > 100
CCCCCCCCCCCCCCCCNc1ccn(C2CC(O)C(COC(c3ccccc3)(c3ccccc3)c3ccc(OC)cc3)O2)c(=O)n1 (stereo not given) | > 100 µM (inactive) | 93.5 µM (inactive) | > 100 µM (inactive) | > 100 µM (inactive) | > 100 µM (inactive) | > 100 µM (inactive) | > 100 µM (inactive) | > 100 µM (inactive) | > 100 µM (inactive) | > 100 µM (inactive) | > 100 µM (inactive) | > 100 µM (inactive) | > 100 µM (inactive) | > 100 µM (inactive) | > 100 µM (inactive) | > 100 µM (inactive) | > 100 µM (inactive) | > 100 µM (inactive) | > 100 µM (inactive) | > 100
Cc1cc(NS(=O)(=O)c2ccc(NC(=O)c3ccc4[nH]c5ccccc5c(=O)c4c3)cc2)no1 | 56.9 µM (inactive) | > 100 µM (inactive) | 46.5 µM (inactive) | > 100 µM (inactive) | 49.9 µM (inactive) | > 100 µM (inactive) | > 100 µM (inactive) | > 100 µM (inactive) | > 100 µM (inactive) | > 100 µM (inactive) | > 100 µM (inactive) | 69.7 µM (inactive) | > 100 µM (inactive) | > 100 µM (inactive) | > 100 µM (inactive) | > 100 µM (inactive) | 45.4 µM (inactive) | > 100 µM (inactive) | > 100 µM (inactive) | > 100
O=C(O)CSCC(=O)c1ccccc1 | > 100 µM (inactive) | > 100 µM (inactive) | > 100 µM (inactive) | > 100 µM (inactive) | > 100 µM (inactive) | > 100 µM (inactive) | > 100 µM (inactive) | > 100 µM (inactive) | > 100 µM (inactive) | > 100 µM (inactive) | > 100 µM (inactive) | > 100 µM (inactive) | > 100 µM (inactive) | > 100 µM (inactive) | > 100 µM (inactive) | > 100 µM (inactive) | > 100 µM (inactive) | > 100 µM (inactive) | > 100 µM (inactive) | > 100
COc1cc(-c2oc3ccccc3c(=O)c2O)cc(OC)c1OC | > 94.6 µM (inactive) | 10.3 µM (inactive) | 6.24 µM (inactive) | 6.5 µM (inactive) | 8.22 µM (inactive) | 14 µM (inactive) | 11.4 µM (inactive) | 9.66 µM (inactive) | > 31.6 µM (inactive) | 26.2 µM (inactive) | > 58.9 µM (inactive) | 6 µM (inactive) | 6.9 µM (inactive) | 11.3 µM (inactive) | 9.75 µM (inactive) | 35.7 µM (inactive) | 15.6 µM (inactive) | 4.28 µM (inactive) | > 100 µM (inactive) | 4.62
NC(=O)c1csc(C2(O)COC(CO)C2O)n1 (stereo not given) | > 100 µM (inactive) | > 100 µM (inactive) | > 100 µM (inactive) | > 100 µM (inactive) | > 100 µM (inactive) | > 100 µM (inactive) | > 100 µM (inactive) | > 100 µM (inactive) | > 100 µM (inactive) | > 100 µM (inactive) | > 100 µM (inactive) | > 100 µM (inactive) | > 100 µM (inactive) | > 100 µM (inactive) | > 100 µM (inactive) | > 100 µM (inactive) | > 100 µM (inactive) | > 100 µM (inactive) | > 100 µM (inactive) | > 100
